According to ChEMBL document CHEMBL5441451, “ASAP - In vitro cytotoxicity” (2024):
Several values for one entry are separate records, joined by “and”; a condition that tells them apart may be missing. Identical values can stand only once.

Experiments:
[1] = Functional metabolic assay to measure dose dependent changes in cell viability from drug treatment in HeLa-ACE2 cells. Hela-ACE2 cells are seeded prior to drug treatment, then incubated in MTT (3-[4,5-dimethylthiazol-2-yl]-2,5- diphenyltetrazolium bromide) labelling reagent and SDS. Absorbance is measured at 560 and 750 nm and analyzed by Gen5 software. The assay has been performed by Icahn School of Medicine at Mount Sinai.; assay type: toxicity, cell-based; conditions: human
[2] = Functional metabolic assay to measure dose dependent changes in cell viability from drug treatment in iPSC-Pneumocyte cells. The cells are seeded then incubated in MTT (3-[4,5-dimethylthiazol-2-yl]-2,5- diphenyltetrazolium bromide) labeling reagent and SDS. Absorbance is measured at 560 and 750 nm and analyzed by Gen5 software. The assay has been performed by Icahn School of Medicine at Mount Sinai.; assay type: toxicity, cell-based; conditions: human

Cc1ncc(-c2cc3c(N[C@@H](c4ccc5c(c4)OCCO5)C(C)C)ncnc3[nH]2)cn1
CC50 ([1]; HeLa-ACE2 cells): > 20 µM | CC10 ([1]; hela-ace2): > 20 µM | CC50 ([2]; iPSC-Pneumocyte cells): > 50 µM | CC10 ([2]; pneumocyte): > 50 µM

CC(C)[C@@H](Nc1ncnc2[nH]ccc12)c1ccc2c(c1)NC(=O)CO2
CC50 ([1]; HeLa-ACE2 cells): > 50 µM | CC10 ([1]; hela-ace2): > 50 µM | CC50 ([2]; iPSC-Pneumocyte cells): > 50 µM | CC10 ([2]; pneumocyte): > 50 µM

CCNC(=O)c1cc2c(N[C@@H](c3ccc4c(c3)OCCO4)C(C)C)ncnc2[nH]1
CC50 ([2]; iPSC-Pneumocyte cells): < 0.206 µM | CC10 ([2]; pneumocyte): 1.29 µM

CC(C)[C@H](Nc1ncnc2[nH]c(-c3cnn(C)c3C#N)cc12)c1ccc2c(n1)NC(=O)CO2
CC50 ([1]; HeLa-ACE2 cells): > 20 µM | CC10 ([1]; hela-ace2): > 20 µM

CNC(=O)c1cccc(-c2cc3c(N[C@@H](c4ccc5c(c4)S(=O)(=O)CCC5)C(C)C)ncnc3[nH]2)c1
CC50 ([1]; HeLa-ACE2 cells): > 20 µM | CC10 ([1]; hela-ace2): > 20 µM

CNC(=O)c1cccc(-c2cc3c(N[C@H](c4ccc5c(c4)S(=O)(=O)CCC5)C(C)C)ncnc3[nH]2)c1
CC50 ([1]; HeLa-ACE2 cells): > 20 µM | CC10 ([1]; hela-ace2): > 20 µM

CNC(=O)Cn1cc(-c2cc3c(N[C@H](c4ccc5c(c4)S(=O)(=O)CCC5)C(C)C)ncnc3[nH]2)cn1
CC50 ([1]; HeLa-ACE2 cells): > 20 µM | CC10 ([1]; hela-ace2): > 20 µM | CC50 ([2]; iPSC-Pneumocyte cells): > 50 µM | CC10 ([2]; pneumocyte): > 50 µM

CC(C)[C@@H](Nc1ncnc2[nH]c(-c3ccc4nnn(C)c4c3)cc12)c1ccc2c(c1)S(=O)(=O)CCC2
CC50 ([1]; HeLa-ACE2 cells): > 20 µM | CC10 ([1]; hela-ace2): > 20 µM

CC(C)[C@@H](Nc1ncnc2[nH]c(-c3cnn(C)c3)cc12)c1ccc2c(c1)S(=O)(=O)NCC2
CC50 ([1]; HeLa-ACE2 cells): > 20 µM | CC10 ([1]; hela-ace2): > 20 µM

CC(C)[C@H](Nc1ncnc2[nH]c(-c3cnn(C)c3)cc12)c1ccc2c(c1)S(=O)(=O)CCC2
CC50 ([1]; HeLa-ACE2 cells): > 20 µM | CC10 ([1]; hela-ace2): > 20 µM

CCNC(=O)c1cc2c(N[C@@H](c3ccc4c(c3)S(=O)(=O)CCC4)C(C)C)ncnc2[nH]1
CC50 ([1]; HeLa-ACE2 cells): > 20 µM | CC10 ([1]; hela-ace2): > 20 µM

CC(C)[C@@H](Nc1ncnc2[nH]c(C(N)=O)cc12)c1ccc2c(c1)OCCO2
CC50 ([1]; HeLa-ACE2 cells): < 0.082 µM | CC10 ([1]; hela-ace2): < 0.082 µM | CC50 ([2]; iPSC-Pneumocyte cells): > 50 µM | CC10 ([2]; pneumocyte): > 50 µM

CC(C)[C@@H](Nc1ncnc2[nH]c(-c3ccc4cncn4c3)cc12)c1ccc2c(c1)S(=O)(=O)CCC2
CC50 ([1]; HeLa-ACE2 cells): > 20 µM | CC10 ([1]; hela-ace2): > 20 µM

Cc1nn(C)cc1-c1cc2c(N[C@@H](c3ccc4c(c3)S(=O)(=O)CCC4)C(C)C)ncnc2[nH]1
CC50 ([1]; HeLa-ACE2 cells): > 20 µM | CC10 ([1]; hela-ace2): > 20 µM

CCNC(=O)c1cc2c(N[C@H](c3ccc4c(c3)OCCO4)C(C)C)ncnc2[nH]1
CC50 ([1]; HeLa-ACE2 cells): > 20 µM | CC10 ([1]; hela-ace2): > 20 µM

CC(C)[C@@H](Nc1ncnc2[nH]ccc12)c1ccc2c(c1)S(=O)(=O)CCC2
CC10 ([1]; hela-ace2): > 50 µM and > 20 µM | CC50 ([1]; hela-ace2): > 50 µM | CC50 ([2]; iPSC-Pneumocyte cells): > 50 µM | CC10 ([2]; pneumocyte): > 50 µM

CC(C)[C@@H](Nc1ncnc2[nH]c(-c3cnn(CC(N)=O)c3)cc12)c1ccc2c(c1)S(=O)(=O)CCC2
CC50 ([1]; HeLa-ACE2 cells): > 20 µM | CC10 ([1]; hela-ace2): > 20 µM

CC(C)[C@@H](Nc1ncnc2[nH]c(-c3cnn(C)c3C#N)cc12)c1ccc2c(c1)S(=O)(=O)CCC2
CC50 ([1]; HeLa-ACE2 cells): > 20 µM | CC10 ([1]; hela-ace2): > 20 µM | CC50 ([2]; iPSC-Pneumocyte cells): > 50 µM | CC10 ([2]; pneumocyte): > 50 µM

CC(C)[C@@H](Nc1ncnc2[nH]c(-c3cnn(CC(N)=O)c3)cc12)c1ccc2c(n1)OCCO2
CC50 ([2]; iPSC-Pneumocyte cells): > 50 µM | CC10 ([2]; pneumocyte): > 50 µM

CC(C)[C@@H](Nc1ncnc2[nH]c(-c3cnn(C)c3C#N)cc12)c1ccc2c(c1)OCCO2
CC50 ([1]; HeLa-ACE2 cells): > 50 µM | CC10 ([1]; hela-ace2): > 50 µM | CC10 ([2]; pneumocyte): 24.479 µM and > 50 µM | CC50 ([2]; pneumocyte): 18.1 µM and > 50 µM

CC(C)[C@@H](Nc1ncnc2[nH]c(-c3cnn(CC(=O)N(C)C)c3)cc12)c1ccc2c(c1)OCCO2
CC50 ([1]; HeLa-ACE2 cells): > 20 µM | CC10 ([1]; hela-ace2): > 20 µM

Cn1ncc(-c2cc3c(N[C@@H](c4ccc5c(c4)OCCO5)C(C)(C)C)ncnc3[nH]2)c1C#N
CC50 ([1]; HeLa-ACE2 cells): > 20 µM | CC10 ([1]; hela-ace2): > 20 µM | CC50 ([2]; iPSC-Pneumocyte cells): 48.6 µM | CC10 ([2]; pneumocyte): > 50 µM

CC(C)[C@@H](Nc1ncnc2[nH]c(C(=O)N[C@H]3CCN(C)C3)cc12)c1ccc2c(c1)S(=O)(=O)CCC2
CC50 ([1]; HeLa-ACE2 cells): > 20 µM | CC10 ([1]; hela-ace2): > 20 µM | CC50 ([2]; iPSC-Pneumocyte cells): > 50 µM | CC10 ([2]; pneumocyte): > 50 µM

CC(C)(C)[C@@H](Nc1ncnc2[nH]c(-c3cnn(CC(N)=O)c3)cc12)c1ccc2c(n1)OCCO2
CC50 ([1]; HeLa-ACE2 cells): > 20 µM | CC10 ([1]; hela-ace2): > 20 µM | CC50 ([2]; iPSC-Pneumocyte cells): > 50 µM | CC10 ([2]; pneumocyte): > 50 µM

CCNC(=O)c1cc2c(N[C@@H](c3ccc4c(c3)S(=O)(=O)CCO4)C(C)C)ncnc2[nH]1
CC50 ([1]; HeLa-ACE2 cells): > 20 µM | CC10 ([1]; hela-ace2): > 20 µM

CC(C)[C@@H](Nc1ncnc2[nH]c(-c3cnn(C)c3C#N)cc12)c1ccc2c(n1)NC(=O)CO2
CC50 ([1]; HeLa-ACE2 cells): > 20 µM | CC10 ([1]; hela-ace2): > 20 µM

CC(C)[C@@H](Nc1ncnc2[nH]c(-c3cncc(S(C)(=O)=O)c3)cc12)c1ccc2c(c1)S(=O)(=O)CCC2
CC50 ([1]; HeLa-ACE2 cells): > 20 µM | CC10 ([1]; hela-ace2): > 20 µM

CC(C)[C@@H](Nc1ncnc2[nH]c(-c3cnn(C)n3)cc12)c1ccc2c(c1)OCCO2
CC50 ([1]; HeLa-ACE2 cells): > 20 µM | CC10 ([1]; hela-ace2): > 20 µM | CC50 ([2]; iPSC-Pneumocyte cells): < 0.206 µM | CC10 ([2]; pneumocyte): < 0.206 µM

CC(C)[C@@H](Nc1ncnc2[nH]c(-c3cnn(CC(=O)N(C)C)c3)cc12)c1ccc2c(c1)S(=O)(=O)CCC2
CC50 ([1]; HeLa-ACE2 cells): > 20 µM | CC10 ([1]; hela-ace2): > 20 µM

CC(C)[C@H](Nc1ncnc2[nH]c(-c3cnn(CC(N)=O)c3)cc12)c1ccc2c(c1)S(=O)(=O)CCC2
CC50 ([1]; HeLa-ACE2 cells): > 20 µM | CC10 ([1]; hela-ace2): > 20 µM | CC50 ([2]; iPSC-Pneumocyte cells): > 50 µM | CC10 ([2]; pneumocyte): > 50 µM

COc1ccc([C@@H](Cc2nnn[nH]2)NC(=O)c2ncnc3[nH]ccc23)cc1
CC50 ([1]; HeLa-ACE2 cells): > 20 µM | CC10 ([1]; hela-ace2): > 20 µM

CC(C)[C@@H](Nc1ncnc2[nH]c(-c3cnn(CC(N)=O)c3)cc12)c1ccc2c(c1)OCCO2
CC50 ([1]; HeLa-ACE2 cells): > 50 µM | CC10 ([1]; hela-ace2): > 50 µM | CC50 ([2]; iPSC-Pneumocyte cells): > 50 µM | CC10 ([2]; pneumocyte): > 50 µM

CC(C)(C)[C@H](Nc1ncnc2[nH]c(-c3cnn(CC(N)=O)c3)cc12)c1ccc2c(c1)OCCO2
CC50 ([1]; HeLa-ACE2 cells): > 20 µM | CC10 ([1]; hela-ace2): > 20 µM

CC(C)[C@@H](Nc1ncnc2[nH]cc(C(=O)NC3CC3)c12)c1ccc2c(c1)S(=O)(=O)CCC2
CC50 ([1]; HeLa-ACE2 cells): > 20 µM | CC10 ([1]; hela-ace2): > 20 µM

CCNC(=O)c1cc2c(N[C@@H](c3ccc4c(c3)S(=O)(=O)NCC4)C(C)C)ncnc2[nH]1
CC50 ([1]; HeLa-ACE2 cells): > 20 µM | CC10 ([1]; hela-ace2): > 20 µM

CNC(=O)c1cc2c(N[C@@H](c3ccc4c(c3)S(=O)(=O)CCC4)C(C)C)ncnc2[nH]1
CC50 ([1]; HeLa-ACE2 cells): > 20 µM | CC10 ([1]; hela-ace2): > 20 µM

CNCc1cc(-c2cc3c(N[C@@H](c4ccc5c(c4)S(=O)(=O)NCC5)C(C)C)ncnc3[nH]2)co1
CC50 ([1]; HeLa-ACE2 cells): > 20 µM | CC10 ([1]; hela-ace2): > 20 µM | CC50 ([2]; iPSC-Pneumocyte cells): > 50 µM | CC10 ([2]; pneumocyte): > 50 µM

CC(C)[C@@H](Nc1ncnc2[nH]c(-c3cnn(C)c3)cc12)c1ccc2c(c1)S(=O)(=O)CCC2
CC50 ([1]; HeLa-ACE2 cells): > 20 µM | CC10 ([1]; hela-ace2): > 20 µM | CC50 ([2]; iPSC-Pneumocyte cells): > 50 µM | CC10 ([2]; pneumocyte): > 50 µM

CNCc1cc(-c2cc3c(N[C@H](c4ccc5c(c4)S(=O)(=O)CCC5)C(C)C)ncnc3[nH]2)co1
CC50 ([1]; HeLa-ACE2 cells): > 20 µM | CC10 ([1]; hela-ace2): > 20 µM

CC(C)[C@H](Nc1ncnc2[nH]c(-c3cnn(C)c3C#N)cc12)c1ccc2c(c1)S(=O)(=O)CCC2
CC50 ([1]; HeLa-ACE2 cells): > 20 µM | CC10 ([1]; hela-ace2): > 20 µM

CNC(=O)c1cc2c(N[C@@H](c3ccc4c(c3)OCCO4)C(C)C)ncnc2[nH]1
CC50 ([1]; HeLa-ACE2 cells): > 50 µM | CC10 ([1]; hela-ace2): > 50 µM | CC50 ([2]; iPSC-Pneumocyte cells): > 50 µM | CC10 ([2]; pneumocyte): > 50 µM

C[C@@H](C(=O)O)[C@H](NC(=O)c1ncnc2[nH]ccc12)c1ccc(Br)cc1
CC50 ([1]; HeLa-ACE2 cells): > 20 µM | CC10 ([1]; hela-ace2): > 20 µM

Cn1ncc(-c2cc3c(N[C@@H](c4ccc5c(n4)OCCO5)C(C)(C)C)ncnc3[nH]2)c1C#N
CC50 ([1]; HeLa-ACE2 cells): > 10 µM | CC10 ([1]; hela-ace2): > 10 µM and > 20 µM | CC50 ([1]; hela-ace2): > 20 µM

CC(C)[C@@H](Nc1ncnc2[nH]ccc12)c1ccc2c(c1)S(=O)(=O)CCO2
CC50 ([1]; HeLa-ACE2 cells): > 20 µM | CC10 ([1]; hela-ace2): > 20 µM

CC(C)[C@H](Nc1ncnc2[nH]c(-c3cnn(C)c3C#N)cc12)c1ccc2c(c1)NC(=O)CO2
CC50 ([1]; HeLa-ACE2 cells): > 20 µM | CC10 ([1]; hela-ace2): > 20 µM
